Earlier results in publication PMC9834611 (Pharmacology Research & Perspectives, 2023).

Tests used:
[1] = cited from earlier work
ABCB1 = tested on: ABCB1; set-up: method as in PMID 11770010; details: Caco‐2 cell lines; cited from earlier work
CYP3A4 = tested on: CYP3A4; set-up: method as in PMID 25141173; details: cited from earlier work

SMILES | LD50 compared with parent VBL [1] | effect on ABCB1 (ABCB1) | increase in CYP3A4 mRNA expression (CYP3A4) | effect on CYP3A4 (CYP3A4; human hepatocytes)
CC[C@]1(O)C[C@@H]2CN(CCc3c([nH]c4ccccc34)[C@@](C(=O)OC)(c3cc4c(cc3OC)N(C)[C@H]3[C@@](O)(C(=O)OC)[C@H](O)[C@]5(CC)C=CCN6CC[C@]43[C@@H]65)C2)C1 [4‐deacetylvinblastine] | lower than that of the parent | – | – | –
COc1ccc2[nH]c([S+]([O-])Cc3ncc(C)c(OC)c3C)nc2c1 (stereo not shown) [Omeprazole] | – | inhibitor | twofold | inducer
